Measurements: US20260083729A1, “METHODS FOR TREATMENT OF BONE MARROW FAILURE AND RELATED CONDITIONS” (Imago Biosciences, Inc., priority 2022, published 2026)

What was measured:
[1] = system: LSK cells (HSC/progenitor cells: Lineage−, Sca-1+, c-Kit+); assay: In vivo expansion of LSK cells in bone marrow of wild-type mice (flow cytometry); set-up: species or system mice (C57/BL6); settings: oral gavage
Protocol: (§1) The effect of LSD1 inhibitors on HSCPs was investigated in in vivo studies.
(§2) Animals. Healthy animals with an intact immune system were used for all experiments. All animals were drug and test naïve and not involved in previous procedures. Animals were maintained on a 12 hour light-dark cycle with access to water and standard chow ad libitum. CRADL animal care staff conducted routine husbandry procedures and provided daily care and monitoring of all animals housed in CRADL's animal facilities. 8-week old female C57/BL6 (C57BL/6NCrl) mice were purchased from Charles River. All mice were acclimated for at least 48 hours upon arrival. Mice were assigned to treatment groups based on complete blood counts to achieve congruent profiles, body weight was recorded for dose adjustments, and ear tagged for identification. Investigators were not blinded to the identity of mice or samples. No statistical methods were utilized to determine sample size. The experiments described in this study were designed to use the minimum number of animals required.
(§3) Dosing. To assess the effect of different LSD1 inhibitors on hematopoietic stem and progenitor cells (HSPCs), wild-type mice were administered with Compound 3, Compound 2, or vehicle once daily for 7 days via oral gavage. Administered doses were as indicated in FIGS. 1-5 (Compound 3: 15 and 40 mg/kg, Compound 2, 15, 40, 60, and/or 80 mg/kg).
(§4) Drug preparation. As an example of formulation calculations, a correction factor (compound and lot dependent) of 1.5 will be used (e.g., one lot of Compound 2 actual correction factor 1.67; one lot of Compound 3 actual correction factor 1.69). Vehicle is 30% PEG400 (Millipore Sigma cat #8074850058), 5% Cremophor EL (Med Chem Express cat #HY-Y189) in sterile Milli-Q water.
(§5) Compound 3 or Compound 2 (salt) at a dose of 15 mg/kg dose was prepared by weighing out 0.3 mg×1.5 (example correction factor)=0.45 mg per mouse in 200 μl vehicle solution. Each mouse of 20 g received 200 μl of compound in vehicle solution (volume was corrected for body weight of each mouse at time of dosing). Calculations were scaled appropriately for higher doses. Compound was completely dissolved by swirling and gently pipetting in vehicle. Aliquots were stored for daily usage at 4 C in the dark. On the day of dosing, formulations and vehicle were removed from 4 C and allowed to warm to RT for at least 20 minutes before dosing. Formulations were swirled to achieve a homogenous solution prior to administration for 7 days, once daily, via oral gavage.
(§6) Processing of bones and blood for analysis. 24 hours after the last dose was administered, blood was collected via cheek bleed and mice were subsequently sacrificed via CO2 asphyxiation. Bones were separated from the mice, muscle and tissue removed, and bone marrow cells were isolated from mouse femora and tibiae by centrifugation. Red blood cells (RBC) were lysed by adding cold ACK lysis buffer (Thermo Fisher cat #A1049201) and incubating bone marrow cells (or […] of peripheral blood) on ice for 10 minutes. Following RBC lysis, samples were topped up with an appropriate volume of FACS buffer (PBS+2% BSA) and centrifuged at 3000 rpm for 5 minutes. Cell pellet was resuspended in FACS buffer and filtered through a […] filter to remove aggregated cell clumps and debris. Cells in the filtered suspension were counted and ˜2-3×10^6 cells removed for cell staining.
(§7) Flow Cytometry Analysis. For flow staining, @ 2-3×10e6 cells were centrifuged at 400×g, 5 minutes, 4 C in 1.5 ml centrifuge tubes. Supernatant was aspirated and cells were resuspended in 100 μl of staining cock-tail per tube. Tubes were incubated on ice for 30 minutes in the dark. 1 ml of FACS buffer (PBS+2% FBS) was added to each tube and then centrifuged at 400×g, 5 minutes, 4° C. Supernatant was aspirated, and cells were resuspended at 300 μl per tube in 7-AAD solution (5 μl/ml of FACS Buffer). […]

[2] = system: long-term HSC (LT-HSC) cells; assay: In vivo expansion of long-term HSC (LT-HSC) cells in bone marrow of wild-type mice (flow cytometry); set-up: species or system mice (C57/BL6); settings: oral gavage
Protocol: as §1, §2, §3, §4, §5, §6, §7

platelet (PLT) levels = assay: Complete blood count, platelet (PLT) levels, in treated mice; assay type: in vivo, mice (C57/BL6); settings: once daily for 7 days, oral gavage
Protocol: as §2, §3
as §5, with “On the day of dosing, formulations and vehicle were removed from 4 C and allowed to warm to RT for at least 20 minutes before dosing. Formulations were swirled to achieve a homogenous solution prior to administration for 7 days, once daily, via oral gavage.” left out
Processing of bones and blood for analysis. […] Cells in the filtered suspension were counted and ˜2-3×10^6 cells removed for cell staining.
Complete blood counts. Complete blood counts from the peripheral blood sample collected at end of study were measured at IDEXX BioAnalytics.

effect on complete blood count as evidenced by platelet (PLT) levels (platelet (PLT) levels; three higher concentrations)	Structure (SMILES)	in vivo expansion of LSK cells, fold increase ([1]; 40 mg/kg once daily for 7 days)	number of LSK cells, treated group ([1]; 40 mg/kg once daily for 7 days)	in vivo expansion of LSK cells, fold increase ([1]; 80 mg/kg once daily for 7 days)	number of LSK cells, treated group ([1]; 80 mg/kg once daily for 7 days)	in vivo expansion of LT-HSC cells, fold increase ([2]; 40 mg/kg once daily for 7 days)	number of LT-HSC cells, treated group ([2]; 40 mg/kg once daily for 7 days)	in vivo expansion of LT-HSC cells, fold increase ([2]; 80 mg/kg once daily for 7 days)	number of LT-HSC cells, treated group ([2]; 80 mg/kg once daily for 7 days)	effect on complete blood count as evidenced by platelet (PLT) levels (platelet (PLT) levels; two concentrations)	in vivo expansion of LSK cells, fold increase ([1]; 15 mg/kg once daily for 7 days)	number of LSK cells, treated group ([1]; 15 mg/kg once daily for 7 days)	in vivo expansion of LT-HSC cells, fold increase ([2]; 15 mg/kg once daily for 7 days)	number of LT-HSC cells, treated group ([2]; 15 mg/kg once daily for 7 days)
not significantly affected at any dose	COc1ccc(-n2nc(NC[C@H]3CCC[C@H](N)C3)cc2-c2ccc(C#N)c(F)c2)cc1 [Compound 2]	1.7 fold	1714	2.3 fold	2215	1.5 fold	250	1.6 fold	157	not significantly affected at either dose	–	–	–	–
–	CN1CCN(C(=O)[C@H](CCCN[C@@H]2C[C@H]2c2ccc(F)cc2)NC(=O)c2ccc(-n3ccnn3)cc2)CC1 [IMG-7289, bomedemstat]	6 fold	–	–	–	7.5 fold	921	–	–	reduced in a dose-dependent manner	2 fold	2545	2 fold	252
